# Reference: patent US12226410B2, “Methods for enhancing cellular clearance of pathological molecules via activation of the cellular protein ykt6” (NORTHWESTERN UNIVERSITY, priority 2019, dated 2025)
# Assays:
# Format in all cases: in vivo
# [1] = tested on: ykt6; assay: FTI treatment of wild-type mice: ykt6 membrane distribution and SNARE complexes in cortex; conditions: daily i.p. 0.9 mg/kg, 14 days
# Method: (§1) FIGS. 15A, 15B, 15C, 15D, 15E, and 15F. FTI treatment of wild-type mice enhances ykt6 SNARE complexes, lysosomal activity, and reduces a-syn. 15A) Wild-type mice (C57Bl/6) were i.p. injected daily with FTI for 14 days at 0.9 mg/kg and compared to vehicle injected mice. Extracts from the cortex were analyzed for cytosolic (cyt) and membrane (mem) distribution of ykt6 (veh, n=5; FTI, n=6). 15B) Representative gel filtration/western blot analysis of cortical extracts of veh or FTI injected wild-type mice. Inputs are shown on the left. NSE indicates equal column loading. 15C) Quantification of ykt6 and STX5 complexes (ca. 120A) from gel filtration analysis in C (n=4 mice). Fraction 1 corresponds to complexes at 120A, while fractions 7-9 correspond to ykt6 monomers at 22-14 A. 15D) The levels of post ER (endo H resistant) GCase were analyzed by western blot and post ER/ER ratios were quantified from the cortex of FTI treated mice (veh, n=5; FTI, n=6). 15E) GCase activity was assessed in cortical lysates and normalized to total protein (veh, n=4; FTI, n=6). 15F) a-Syn levels were quantified from cytosolic or membrane isolated fractions from the cortex of wild-type FTI treated mice (veh, n=4; FTI, n=6). For all quantifications, values are the mean+/−SEM, *p<0.05.
# Separation of lysates into cytosol and membrane fractions. Cell cultures from either a 10 cm dish (SH-SY5Y) or 6 well (iPSn) were scraped in cold PBS and pelleted by centrifugation at 400×g, 5 min, 4° C. The supernatant was discarded and cell pellets were homogenized in 200-400 ul of cold PBS containing protease inhibitor cocktail mix (1 mM phenylmethanesulfonyl fluoride (PMSF), 50 mM NaF, 2 mM Na orthovanadate, and a protease inhibitor cocktail (Roche diagnostics, http://www.roche.com, #11-836-170-001)) using a Teflon homogenizer in a conical glass vessel for 20-40 times, using a motor driven spindle at 4000 rpm (GlasCol, https://glascol.com/homogenizers). […] Fractions were then analyzed by western blot analysis as described below. The samples were not analyzed in a blinded manner. […]
# [2] = tested on: TH protein; assay: FTI treatment of DASYN53 mice: midbrain TH levels; conditions: i.p. 0.9 mg/kg, 26d
# Text: FIGS. 8A, 8B, 8C, 8D, 8E, and 8F. FTI treatment enhances GCase activity and reduces pathological a-syn in transgenic mice. 8A) GCase activity in the midbrain of FTI (LNK-754)-treated DASYN53 mice (treated as in FIG. 7) (n=4, veh; n=5, FTI). 8B & 8C) Quantification of soluble and insoluble a-syn from midbrains of FTI-treated DASYN53 mice normalized to total protein (CBB). Syn211 is selective for human (hu) a-syn; C20 and syn303 detect mouse (ms) and hu a-syn, (n=3, nTg+Veh; n=4, DASYN53+veh; n=5 DASYN53+FTI). 8D) Midbrain TH levels were quantified by western blot of FTI-treated DASYN53 mice (n=3). 8E) Body weight of FTI-treated DASYN53 mice (n=9, nTg+Veh; n=7, DASYN53+veh; n=7 DASYN53+FTI). 8F) Rotarod test of FTI-treated DASYN53 mice (n=12, nTg+Veh; n=7, DASYN53+veh; n=7 DASYN53+FTI). Values are the mean+/−SEM. *p<0.05, **p<0.01, and *** p<0.001. Student's t-test, panel A; ANOVA with Tukey's posthoc test, panels B-F.
# Treatment of C57Bl/6 and DASYN53 mice with farnesyltransferase inhibitors. 3 mo old C57BL6 mice were i.p. injected daily with 0.9 mg/kg LNK-754 that was formulated in a vehicle of 0.5% sodium carboxymethylcellulose and filtered before use for 14 days. DASYN53 mice were i.p. injected daily with 0.9 mg/kg LNK-754 as above. Mice were perfused with PBS and the brains (cortex) were rapidly dissected and frozen until analysis. […]
# [3] = tested on: a-syn; assay: FTI treatment of wild-type mice: a-syn levels in cortex; conditions: daily i.p. 0.9 mg/kg, 14 days
# Method: as §1
# Treatment of C57Bl/6 and DASYN53 mice with farnesyltransferase inhibitors. […]
structure (smiles),measurement,setting,value
C#Cc1cccc(-c2cc(=O)n(C)c3ccc([C@](O)(c4ccc(Cl)cc4)c4cncn4C)cc23)c1 [LNK-754],levels of membrane associated ykt6 and STX5,[1],increase the levels of membrane associated ykt6 and STX5
same,sec22b,[1],no change
same,ykt6 distribution by SEC (monomers vs complexes),[1],shifted its distribution from monomers into high molecular weight complexes
same,TH levels in midbrain,[2],partially restore TH levels
same,a-syn levels,[3],reduced a-syn levels
